{
  "source": "paper PMC7181660",
  "about": "“A novel specific PERK activator reduces toxicity and extends survival in Huntington's disease models” (Scientific Reports, 2020)",
  "experiment_in_all_cases": "biochemical",
  "format_in_all_cases": "biochemical",
  "key": {"panel of 391 kinases [1]": {"target": "panel of 391 kinases (Homo sapiens, UniProt Q06187)", "conditions": "BTK, MK-28 1 µM, ATP 1 µM"}, "panel of 391 kinases [2]": {"target": "panel of 391 kinases (Homo sapiens, UniProt Q9HBH9)", "conditions": "MNK2, MK-28 1 µM, ATP 1 µM"}, "panel of 391 kinases [3]": {"target": "panel of 391 kinases (Homo sapiens, UniProt Q8NEV4)", "conditions": "MYO3A, MK-28 1 µM, ATP 1 µM"}, "panel of 391 kinases [4]": {"target": "panel of 391 kinases (Homo sapiens, UniProt P35626)", "conditions": "GRK3, MK-28 1 µM, ATP 1 µM"}, "panel of 391 kinases [5]": {"target": "panel of 391 kinases (Homo sapiens, UniProt Q15208)", "conditions": "STK38/NDR1, MK-28 1 µM, ATP 1 µM"}, "panel of 391 kinases [6]": {"target": "panel of 391 kinases (Homo sapiens, UniProt Q05397)", "conditions": "FAK/PTK2, MK-28 1 µM, ATP 1 µM"}, "panel of 391 kinases [7]": {"target": "panel of 391 kinases (Homo sapiens, UniProt Q8IW41)", "sequence (Q8IW41 whole entry)": "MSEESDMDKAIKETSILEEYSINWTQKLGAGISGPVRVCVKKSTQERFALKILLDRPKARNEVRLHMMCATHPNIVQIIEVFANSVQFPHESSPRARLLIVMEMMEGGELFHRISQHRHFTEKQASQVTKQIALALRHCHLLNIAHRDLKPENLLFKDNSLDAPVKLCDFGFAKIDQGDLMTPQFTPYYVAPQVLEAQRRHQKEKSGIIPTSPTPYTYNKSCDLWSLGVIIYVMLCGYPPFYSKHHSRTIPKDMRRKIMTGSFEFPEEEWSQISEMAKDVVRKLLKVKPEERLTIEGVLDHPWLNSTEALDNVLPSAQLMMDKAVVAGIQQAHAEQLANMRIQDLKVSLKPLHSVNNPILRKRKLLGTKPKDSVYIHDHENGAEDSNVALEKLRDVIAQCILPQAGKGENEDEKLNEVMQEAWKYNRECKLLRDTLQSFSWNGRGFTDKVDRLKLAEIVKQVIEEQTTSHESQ", "conditions": "MAPKAPK5/PRAK, MK-28 1 µM, ATP 1 µM"}, "panel of 391 kinases [8]": {"target": "panel of 391 kinases (Homo sapiens, UniProt P52564)", "conditions": "MKK6, MK-28 1 µM, ATP 1 µM"}, "panel of 391 kinases [9]": {"target": "panel of 391 kinases (Homo sapiens, UniProt Q96RG2)", "conditions": "PASK, MK-28 1 µM, ATP 1 µM"}, "panel of 391 kinases [10]": {"target": "panel of 391 kinases (Homo sapiens, UniProt Q8TF76)", "conditions": "Haspin, MK-28 1 µM, ATP 1 µM"}, "panel of 391 kinases [11]": {"target": "panel of 391 kinases (Homo sapiens, UniProt Q96PF2)", "sequence (Q96PF2 whole entry)": "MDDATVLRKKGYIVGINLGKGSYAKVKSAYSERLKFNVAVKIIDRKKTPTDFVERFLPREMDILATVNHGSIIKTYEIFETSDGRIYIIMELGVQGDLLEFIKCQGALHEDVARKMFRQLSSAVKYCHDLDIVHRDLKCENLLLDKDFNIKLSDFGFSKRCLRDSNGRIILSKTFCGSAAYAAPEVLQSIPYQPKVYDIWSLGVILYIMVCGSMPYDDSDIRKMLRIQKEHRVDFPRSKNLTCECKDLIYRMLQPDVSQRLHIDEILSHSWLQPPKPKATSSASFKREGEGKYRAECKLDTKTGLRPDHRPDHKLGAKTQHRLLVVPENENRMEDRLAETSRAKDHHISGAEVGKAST", "conditions": "TSSK2, MK-28 1 µM, ATP 1 µM"}, "panel of 391 kinases [12]": {"target": "panel of 391 kinases (Homo sapiens, UniProt Q9HBY8)", "sequence (Q9HBY8 whole entry)": "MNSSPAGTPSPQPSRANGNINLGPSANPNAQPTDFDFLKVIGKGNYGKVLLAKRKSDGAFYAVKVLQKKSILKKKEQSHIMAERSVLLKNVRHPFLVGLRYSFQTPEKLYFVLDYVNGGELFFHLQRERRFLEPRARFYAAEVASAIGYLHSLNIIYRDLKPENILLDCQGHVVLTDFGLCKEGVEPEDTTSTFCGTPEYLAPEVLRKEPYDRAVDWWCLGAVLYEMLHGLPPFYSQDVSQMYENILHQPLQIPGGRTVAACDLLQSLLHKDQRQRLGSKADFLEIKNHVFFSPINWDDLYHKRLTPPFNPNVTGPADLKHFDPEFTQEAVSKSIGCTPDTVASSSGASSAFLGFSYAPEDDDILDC", "conditions": "SGK2, MK-28 1 µM, ATP 1 µM"}, "panel of 391 kinases [13]": {"target": "panel of 391 kinases (Homo sapiens, UniProt P09769)", "conditions": "FGR, MK-28 1 µM, ATP 1 µM"}, "panel of 391 kinases [14]": {"target": "panel of 391 kinases (Homo sapiens, UniProt Q15569)", "sequence (Q15569 whole entry)": "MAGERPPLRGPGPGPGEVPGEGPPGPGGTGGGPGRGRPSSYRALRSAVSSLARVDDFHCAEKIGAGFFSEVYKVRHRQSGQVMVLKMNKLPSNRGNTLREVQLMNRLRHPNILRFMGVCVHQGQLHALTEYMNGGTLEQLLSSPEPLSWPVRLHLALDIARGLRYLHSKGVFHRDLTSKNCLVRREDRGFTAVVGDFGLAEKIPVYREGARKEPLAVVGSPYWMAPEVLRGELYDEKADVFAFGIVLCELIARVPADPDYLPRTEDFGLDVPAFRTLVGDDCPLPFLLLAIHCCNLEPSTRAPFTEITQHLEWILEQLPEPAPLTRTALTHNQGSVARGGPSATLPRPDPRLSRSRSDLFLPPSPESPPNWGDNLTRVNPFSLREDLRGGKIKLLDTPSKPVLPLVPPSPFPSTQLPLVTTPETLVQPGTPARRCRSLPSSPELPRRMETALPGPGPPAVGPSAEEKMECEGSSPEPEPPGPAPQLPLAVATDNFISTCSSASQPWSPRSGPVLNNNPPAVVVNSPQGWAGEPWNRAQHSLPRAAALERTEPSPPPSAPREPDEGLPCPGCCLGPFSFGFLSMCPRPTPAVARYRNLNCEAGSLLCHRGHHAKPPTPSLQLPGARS", "conditions": "TESK1, MK-28 1 µM, ATP 1 µM"}, "panel of 391 kinases [15]": {"target": "panel of 391 kinases (Homo sapiens, UniProt Q13043)", "conditions": "MST1/STK4, MK-28 1 µM, ATP 1 µM"}, "panel of 391 kinases [16]": {"target": "panel of 391 kinases (Homo sapiens, UniProt P04629)", "conditions": "TRKA, MK-28 1 µM, ATP 1 µM"}, "panel of 391 kinases [17]": {"target": "panel of 391 kinases (Homo sapiens, UniProt P19784)", "sequence (P19784 whole entry)": "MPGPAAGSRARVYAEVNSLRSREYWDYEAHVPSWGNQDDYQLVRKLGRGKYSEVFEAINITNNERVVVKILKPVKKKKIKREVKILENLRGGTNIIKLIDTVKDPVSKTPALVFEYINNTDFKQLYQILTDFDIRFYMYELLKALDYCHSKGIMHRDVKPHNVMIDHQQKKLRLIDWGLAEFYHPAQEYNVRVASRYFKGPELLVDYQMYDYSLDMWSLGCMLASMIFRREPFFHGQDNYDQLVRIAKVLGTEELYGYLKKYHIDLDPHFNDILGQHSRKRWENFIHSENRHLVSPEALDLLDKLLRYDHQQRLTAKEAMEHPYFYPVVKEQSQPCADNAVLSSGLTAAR", "conditions": "CK2a2, MK-28 1 µM, ATP 1 µM"}, "panel of 391 kinases [18]": {"target": "panel of 391 kinases (Homo sapiens, UniProt O00311)", "conditions": "CDC7/DBF4, MK-28 1 µM, ATP 1 µM"}, "panel of 391 kinases [19]": {"target": "panel of 391 kinases (Homo sapiens, UniProt Q05513)", "sequence (Q05513 whole entry)": "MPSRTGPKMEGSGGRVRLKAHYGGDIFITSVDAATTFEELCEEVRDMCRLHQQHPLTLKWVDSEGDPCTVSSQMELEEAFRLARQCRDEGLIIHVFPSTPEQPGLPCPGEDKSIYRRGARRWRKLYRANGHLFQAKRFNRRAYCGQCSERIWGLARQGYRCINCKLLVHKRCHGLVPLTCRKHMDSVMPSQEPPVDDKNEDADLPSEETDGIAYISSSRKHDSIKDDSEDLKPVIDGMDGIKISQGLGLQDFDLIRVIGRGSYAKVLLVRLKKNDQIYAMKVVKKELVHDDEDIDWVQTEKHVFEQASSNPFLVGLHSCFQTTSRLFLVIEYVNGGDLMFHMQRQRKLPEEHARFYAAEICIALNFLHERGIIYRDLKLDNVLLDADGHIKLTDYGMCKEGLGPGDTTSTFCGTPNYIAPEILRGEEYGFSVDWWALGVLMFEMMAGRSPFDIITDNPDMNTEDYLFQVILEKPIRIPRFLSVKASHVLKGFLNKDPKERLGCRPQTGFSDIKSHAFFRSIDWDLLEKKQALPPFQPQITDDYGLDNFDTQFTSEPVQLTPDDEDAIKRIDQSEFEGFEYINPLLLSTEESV", "conditions": "PKCzeta, MK-28 1 µM, ATP 1 µM"}, "panel of 391 kinases [20]": {"target": "panel of 391 kinases (Homo sapiens, UniProt Q5TCX8)", "sequence (Q5TCX8 whole entry)": "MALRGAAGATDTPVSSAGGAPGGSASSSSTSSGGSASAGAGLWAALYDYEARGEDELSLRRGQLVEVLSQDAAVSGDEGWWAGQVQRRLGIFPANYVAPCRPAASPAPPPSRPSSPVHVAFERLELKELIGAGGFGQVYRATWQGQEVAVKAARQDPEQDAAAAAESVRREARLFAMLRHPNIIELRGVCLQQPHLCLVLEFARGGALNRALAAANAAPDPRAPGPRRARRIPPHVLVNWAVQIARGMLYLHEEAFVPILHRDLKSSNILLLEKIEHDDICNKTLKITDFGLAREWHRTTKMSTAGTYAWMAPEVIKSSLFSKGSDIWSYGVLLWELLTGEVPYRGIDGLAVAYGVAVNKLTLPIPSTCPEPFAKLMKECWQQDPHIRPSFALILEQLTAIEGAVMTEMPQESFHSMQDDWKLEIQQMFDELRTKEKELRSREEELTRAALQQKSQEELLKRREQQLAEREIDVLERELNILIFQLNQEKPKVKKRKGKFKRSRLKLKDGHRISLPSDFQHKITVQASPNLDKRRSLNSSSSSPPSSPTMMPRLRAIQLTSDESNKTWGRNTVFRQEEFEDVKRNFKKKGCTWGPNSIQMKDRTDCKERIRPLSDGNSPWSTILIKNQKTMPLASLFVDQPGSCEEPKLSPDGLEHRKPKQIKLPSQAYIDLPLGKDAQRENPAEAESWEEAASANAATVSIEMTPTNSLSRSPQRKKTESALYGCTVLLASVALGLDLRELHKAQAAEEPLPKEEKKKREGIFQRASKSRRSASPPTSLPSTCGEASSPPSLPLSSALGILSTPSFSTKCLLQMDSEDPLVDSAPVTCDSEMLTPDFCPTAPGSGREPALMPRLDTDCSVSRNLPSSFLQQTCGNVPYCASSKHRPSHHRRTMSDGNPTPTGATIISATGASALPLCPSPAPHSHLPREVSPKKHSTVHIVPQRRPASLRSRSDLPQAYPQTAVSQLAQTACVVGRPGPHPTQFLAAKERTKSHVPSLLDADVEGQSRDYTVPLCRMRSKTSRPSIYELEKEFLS", "conditions": "MLK4, MK-28 1 µM, ATP 1 µM"}, "panel of 391 kinases [21]": {"target": "panel of 391 kinases (Homo sapiens, UniProt Q9UKI8)", "conditions": "TLK1, MK-28 1 µM, ATP 1 µM"}, "panel of 391 kinases [22]": {"target": "panel of 391 kinases (Homo sapiens, UniProt P54760)", "conditions": "EPHB4; MK-28 1 µM; ATP 1 µM; read-out: % Enzyme Activity (relative to DMSO controls)"}, "panel of 391 kinases [23]": {"target": "panel of 391 kinases (Homo sapiens, UniProt Q12866)", "conditions": "c-MER, MK-28 1 µM, ATP 1 µM"}, "panel of 391 kinases [24]": {"target": "panel of 391 kinases (Homo sapiens, UniProt P29322)", "sequence (P29322 28-1005)": "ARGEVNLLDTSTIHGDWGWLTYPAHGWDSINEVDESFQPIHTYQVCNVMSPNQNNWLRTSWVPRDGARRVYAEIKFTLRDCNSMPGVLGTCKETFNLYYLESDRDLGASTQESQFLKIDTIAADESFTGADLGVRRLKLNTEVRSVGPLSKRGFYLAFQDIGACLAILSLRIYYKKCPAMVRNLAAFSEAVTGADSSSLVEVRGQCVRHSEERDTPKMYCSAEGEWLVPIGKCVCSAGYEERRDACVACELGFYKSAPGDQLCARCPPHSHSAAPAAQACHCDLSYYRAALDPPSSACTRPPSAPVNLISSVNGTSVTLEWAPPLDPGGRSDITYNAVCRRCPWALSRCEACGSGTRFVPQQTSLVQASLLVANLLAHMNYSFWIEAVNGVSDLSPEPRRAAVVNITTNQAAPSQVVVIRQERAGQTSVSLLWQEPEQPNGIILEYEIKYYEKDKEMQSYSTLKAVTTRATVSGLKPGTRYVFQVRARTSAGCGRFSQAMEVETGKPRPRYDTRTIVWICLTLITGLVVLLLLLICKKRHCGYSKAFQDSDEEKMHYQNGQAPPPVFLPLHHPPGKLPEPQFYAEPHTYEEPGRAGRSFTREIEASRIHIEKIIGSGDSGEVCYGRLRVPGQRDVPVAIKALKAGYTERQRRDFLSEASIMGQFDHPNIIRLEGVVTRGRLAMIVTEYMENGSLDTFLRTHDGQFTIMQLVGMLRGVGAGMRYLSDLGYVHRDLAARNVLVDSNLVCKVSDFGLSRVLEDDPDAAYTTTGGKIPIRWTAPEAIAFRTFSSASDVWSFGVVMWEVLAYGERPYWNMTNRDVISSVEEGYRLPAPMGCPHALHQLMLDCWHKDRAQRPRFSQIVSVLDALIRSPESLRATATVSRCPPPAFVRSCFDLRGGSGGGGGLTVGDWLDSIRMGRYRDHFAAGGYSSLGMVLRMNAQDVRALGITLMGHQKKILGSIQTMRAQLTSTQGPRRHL", "conditions": "EPHA8, MK-28 1 µM, ATP 1 µM"}, "panel of 391 kinases [25]": {"target": "panel of 391 kinases (Homo sapiens, UniProt P31751)", "conditions": "AKT2, MK-28 1 µM, ATP 1 µM"}, "panel of 391 kinases [26]": {"target": "panel of 391 kinases (Homo sapiens, UniProt P53667)", "conditions": "LIMK1, MK-28 1 µM, ATP 1 µM"}, "panel of 391 kinases [27]": {"target": "panel of 391 kinases (Homo sapiens, UniProt P54762)", "conditions": "EPHB1, MK-28 1 µM, ATP 1 µM"}, "[28]": {"conditions": "read-out: % Enzyme Activity (relative to DMSO controls)"}},
  "data": [
    {"smiles": "CN(/N=C\\c1ccc(O)c(O)c1)c1nc(-c2ccccc2)cc(-c2ccccc2)n1", "note": "[MK-28]", "values": [
      {"measurement": "% Enzyme Activity (relative to DMSO controls)", "setting": "panel of 391 kinases [1]", "result": 85.19, "unit": "%"},
      {"measurement": "remaining activity at 1 µM", "setting": "panel of 391 kinases [1]; [28]", "result": 85.4, "unit": "%"},
      {"measurement": "% Enzyme Activity (relative to DMSO controls)", "setting": "panel of 391 kinases [2]", "result": 105.57, "unit": "%"},
      {"measurement": "remaining activity at 1 µM", "setting": "panel of 391 kinases [2]; [28]", "result": 114, "unit": "%"},
      {"measurement": "% Enzyme Activity (relative to DMSO controls)", "setting": "panel of 391 kinases [3]", "result": 104.11, "unit": "%"},
      {"measurement": "remaining activity at 1 µM", "setting": "panel of 391 kinases [3]; [28]", "result": 104, "unit": "%"},
      {"measurement": "% Enzyme Activity (relative to DMSO controls)", "setting": "panel of 391 kinases [4]", "result": 99.99, "unit": "%"},
      {"measurement": "remaining activity at 1 µM", "setting": "panel of 391 kinases [4]; [28]", "result": 102, "unit": "%"},
      {"measurement": "% Enzyme Activity (relative to DMSO controls)", "setting": "panel of 391 kinases [5]", "result": 95.54, "unit": "%"},
      {"measurement": "remaining activity at 1 µM", "setting": "panel of 391 kinases [5]; [28]", "result": 96.8, "unit": "%"},
      {"measurement": "% Enzyme Activity (relative to DMSO controls)", "setting": "panel of 391 kinases [6]", "result": 97.96, "unit": "%"},
      {"measurement": "remaining activity at 1 µM", "setting": "panel of 391 kinases [6]; [28]", "result": 98.1, "unit": "%"},
      {"measurement": "% Enzyme Activity (relative to DMSO controls)", "setting": "panel of 391 kinases [7]", "result": 77.52, "unit": "%"},
      {"measurement": "remaining activity at 1 µM", "setting": "panel of 391 kinases [7]; [28]", "result": 77.8, "unit": "%"},
      {"measurement": "% Enzyme Activity (relative to DMSO controls)", "setting": "panel of 391 kinases [8]", "result": 94.11, "unit": "%"},
      {"measurement": "remaining activity at 1 µM", "setting": "panel of 391 kinases [8]; [28]", "result": 95.6, "unit": "%"},
      {"measurement": "% Enzyme Activity (relative to DMSO controls)", "setting": "panel of 391 kinases [9]", "result": 91.44, "unit": "%"},
      {"measurement": "remaining activity at 1 µM", "setting": "panel of 391 kinases [9]; [28]", "result": 95.4, "unit": "%"},
      {"measurement": "% Enzyme Activity (relative to DMSO controls)", "setting": "panel of 391 kinases [10]", "result": 102.02, "unit": "%"},
      {"measurement": "remaining activity at 1 µM", "setting": "panel of 391 kinases [10]; [28]", "result": 116, "unit": "%"},
      {"measurement": "% Enzyme Activity (relative to DMSO controls)", "setting": "panel of 391 kinases [11]", "result": 76.99, "unit": "%"},
      {"measurement": "remaining activity at 1 µM", "setting": "panel of 391 kinases [11]; [28]", "result": 77.3, "unit": "%"},
      {"measurement": "% Enzyme Activity (relative to DMSO controls)", "setting": "panel of 391 kinases [12]", "result": 79.78, "unit": "%"},
      {"measurement": "remaining activity at 1 µM", "setting": "panel of 391 kinases [12]; [28]", "result": 81.3, "unit": "%"},
      {"measurement": "% Enzyme Activity (relative to DMSO controls)", "setting": "panel of 391 kinases [13]", "result": 99.92, "unit": "%"},
      {"measurement": "remaining activity at 1 µM", "setting": "panel of 391 kinases [13]; [28]", "result": 100, "unit": "%"},
      {"measurement": "% Enzyme Activity (relative to DMSO controls)", "setting": "panel of 391 kinases [14]", "result": 66.57, "unit": "%"},
      {"measurement": "remaining activity at 1 µM", "setting": "panel of 391 kinases [14]; [28]", "result": 66.7, "unit": "%"},
      {"measurement": "% Enzyme Activity (relative to DMSO controls)", "setting": "panel of 391 kinases [15]", "result": 85.69, "unit": "%"},
      {"measurement": "remaining activity at 1 µM", "setting": "panel of 391 kinases [15]; [28]", "result": 93.7, "unit": "%"},
      {"measurement": "% Enzyme Activity (relative to DMSO controls)", "setting": "panel of 391 kinases [16]", "result": 106.86, "unit": "%"},
      {"measurement": "remaining activity at 1 µM", "setting": "panel of 391 kinases [16]; [28]", "result": 108, "unit": "%"},
      {"measurement": "% Enzyme Activity (relative to DMSO controls)", "setting": "panel of 391 kinases [17]", "result": 73.33, "unit": "%"},
      {"measurement": "remaining activity at 1 µM", "setting": "panel of 391 kinases [17]; [28]", "result": 78, "unit": "%"},
      {"measurement": "% Enzyme Activity (relative to DMSO controls)", "setting": "panel of 391 kinases [18]", "result": 105.60, "unit": "%"},
      {"measurement": "remaining activity at 1 µM", "setting": "panel of 391 kinases [18]; [28]", "result": 113, "unit": "%"},
      {"measurement": "% Enzyme Activity (relative to DMSO controls)", "setting": "panel of 391 kinases [19]", "result": 100.19, "unit": "%"},
      {"measurement": "remaining activity at 1 µM", "setting": "panel of 391 kinases [19]; [28]", "result": 100, "unit": "%"},
      {"measurement": "% Enzyme Activity (relative to DMSO controls)", "setting": "panel of 391 kinases [20]", "result": 96.53, "unit": "%"},
      {"measurement": "remaining activity at 1 µM", "setting": "panel of 391 kinases [20]; [28]", "result": 97.1, "unit": "%"},
      {"measurement": "% Enzyme Activity (relative to DMSO controls)", "setting": "panel of 391 kinases [21]", "result": 93.00, "unit": "%"},
      {"measurement": "remaining activity at 1 µM", "setting": "panel of 391 kinases [21]; [28]", "result": 96.5, "unit": "%"},
      {"measurement": "remaining activity at 1 µM", "setting": "panel of 391 kinases [22]", "result": 92.8, "unit": "%"},
      {"measurement": "% Enzyme Activity (relative to DMSO controls)", "setting": "panel of 391 kinases [23]", "result": 97.57, "unit": "%"},
      {"measurement": "remaining activity at 1 µM", "setting": "panel of 391 kinases [23]; [28]", "result": 98.6, "unit": "%"},
      {"measurement": "% Enzyme Activity (relative to DMSO controls)", "setting": "panel of 391 kinases [24]", "result": 98.42, "unit": "%"},
      {"measurement": "remaining activity at 1 µM", "setting": "panel of 391 kinases [24]; [28]", "result": 98.7, "unit": "%"},
      {"measurement": "% Enzyme Activity (relative to DMSO controls)", "setting": "panel of 391 kinases [25]", "result": 95.73, "unit": "%"},
      {"measurement": "remaining activity at 1 µM", "setting": "panel of 391 kinases [25]; [28]", "result": 98.1, "unit": "%"},
      {"measurement": "% Enzyme Activity (relative to DMSO controls)", "setting": "panel of 391 kinases [26]", "result": 93.55, "unit": "%"},
      {"measurement": "remaining activity at 1 µM", "setting": "panel of 391 kinases [26]; [28]", "result": 101, "unit": "%"},
      {"measurement": "% Enzyme Activity (relative to DMSO controls)", "setting": "panel of 391 kinases [27]", "result": 96.23, "unit": "%"},
      {"measurement": "remaining activity at 1 µM", "setting": "panel of 391 kinases [27]; [28]", "result": 98.1, "unit": "%"}
    ]}
  ]
}
